The text below walks through data of publication PMC11472313, “Development of Fragment-Based Inhibitors of the Bacterial Deacetylase LpxC with Low Nanomolar Activity” (Journal of Medicinal Chemistry, 2024).

Values after ≈ are worked out from the molar mass of the structure shown.

One assay relates to P. aeruginosa ATCC 27853. The experiment in a line: disc diffusion assay. To be noted: 0.15 μmol per 6 mm disc. Format: cell-based. The protocol: (§1) In the performed disc diffusion assays, indole derivatives (S)-13h, (S)-13i, and (S)-13j caused promising halos of growth inhibition.
(§2) The disc diffusion assays against E. coli TOP10 (Thermo Fisher, Waltham, USA), E. coli ATCC 35218, K. pneumoniae ATCC 700603, and P. aeruginosa ATCC 27853 were performed as follows: the bacteria were grown overnight on a Columbia blood agar plate (Oxoid, Basingstoke, UK), and one colony was suspended in sterile saline to yield a suspension of 0.5 McFarland standard. Using a sterile swab, the suspension was spread evenly onto Mueller–Hinton agar (Oxoid, Basingstoke, UK). 0.15 μmol of each compound (dissolved in 10 μL DMSO) was applied onto circular 6 mm diameter filter paper disks, which were then placed on the agar. After incubating the agar plates for 20 h at 37 °C, the diameter of the zone of growth inhibition was measured for each compound.
For orientation: Agar diffusion results depend on both activity and mobility in agar.

A further assay has as its system E. coli ATCC 35218. The experiment in a line: disc diffusion assay. In kind it is cell-based. As to conditions: 0.15 μmol per 6 mm disc. As for the experimental part:
as §1, §2

The next assay deals with E. coli TOP10. The experiment in a line: disc diffusion assay. In kind it is cell-based. As to conditions: 0.15 μmol per 6 mm disc. The protocol:
as §1, §2

For assay [1], the system named is E. coli BL21(DE3). The experiment in a line: disc diffusion assay. In kind it is cell-based. To be noted: 0.15 μmol per 6 mm disc.
Assay [2] deals with E. coli D22. The experiment in a line: disc diffusion assay. As to conditions: 0.15 μmol per 6 mm disc. Format: cell-based.
For another assay, the target named is T1, LasB (Pseudomonas aeruginosa, UniProt Q02RJ6).
T1 construct: The elastase LasB of P. aeruginosa is a secreted metalloprotease; endogenous in cells; host or cells: P. aeruginosa PA14 culture supernatant
T1 sequence (Q02RJ6 198-498): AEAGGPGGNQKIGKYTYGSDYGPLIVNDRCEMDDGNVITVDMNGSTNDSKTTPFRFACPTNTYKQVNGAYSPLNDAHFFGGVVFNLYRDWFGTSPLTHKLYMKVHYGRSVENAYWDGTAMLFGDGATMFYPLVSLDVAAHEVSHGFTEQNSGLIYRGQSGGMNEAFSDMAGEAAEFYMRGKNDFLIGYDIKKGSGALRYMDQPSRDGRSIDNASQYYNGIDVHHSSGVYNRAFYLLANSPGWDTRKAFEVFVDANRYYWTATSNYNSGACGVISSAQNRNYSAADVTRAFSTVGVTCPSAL
The experiment in a line: FRET-based LasB in vitro inhibition assay. Format: biochemical, P. aeruginosa PA14. As to conditions: for inhibition at 20 µM: read-out: LasB Inhibition at 20 μM. As for the experimental part: Purification of LasB from P. aeruginosa PA14 supernatant and the subsequent performance of the FRET-based in vitro inhibition assay was performed as described previously.[66] The TACE (ADAM-17) inhibitor screening kit was purchased from Sigma-Aldrich (Saint Louis, MO). MMPs 1–3 along with the SensoLyte 520 Generic MMP Activity Kit Fluorimetric were purchased from AnaSpec (Fremont, CA, USA). The assays were performed according to the guidelines of the respective manufacturer. Fluorescence signals were measured using a CLARIOstar plate reader (BMG Labtech, Ortenberg, Germany).

The next assay addresses T2, E. coli LpxC C63A (Escherichia coli, UniProt P0A725, C63A).
T2 construct: made in house; host or cells: E. coli BL21(DE3)
The experiment in a line: fluorescence-based E. coli LpxC C63A enzyme inhibition assay. In kind it is biochemical. As to conditions: Ki E. coli LpxC C63A, from IC50 via Cheng–Prusoff. The procedure, abridged: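 Purified E. coli LpxC C63A (15 nM) was incubated with 25 µM UDP-3-O-[(R)-3-hydroxymyristoyl]-GlcNAc in MES pH 6.0 buffer (2% DMSO) for 30 min at 37 °C. Compounds ranged from 20 nM to 20 µM. Product was derivatized with o-phthaldialdehyde/2-mercaptoethanol and read by fluorescence (ex 340/em 460), with IC50 converted to Ki via Cheng–Prusoff.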

The test system of assay [3] is E. coli BL21(DE3). The experiment in a line: MIC, broth microdilution. Format: cell-based. To be noted: 20 h, 37 °C, LB; for MIC: Escherichia coli. Put shortly:
(§3)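 LB broth microdilution, inoculum 5 × 10^5 cfu mL^–1, 5% DMSO, 2-fold compound series 64–0.016 μg mL^–1 final, incubated 20 h at 37 °C. MIC was the lowest concentration preventing visible growth, from at least three runs on separate days.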

Assay [4] concerns E. coli D22. The experiment in a line: MIC, broth microdilution. Format: cell-based. To be noted: Escherichia coli, 20 h, 37 °C, LB. The procedure, abridged: as §3
On the technique in general: Broth dilution looks for growth in wells or tubes with falling amounts of substance.

T2 sequence (P0A725 whole entry C63A): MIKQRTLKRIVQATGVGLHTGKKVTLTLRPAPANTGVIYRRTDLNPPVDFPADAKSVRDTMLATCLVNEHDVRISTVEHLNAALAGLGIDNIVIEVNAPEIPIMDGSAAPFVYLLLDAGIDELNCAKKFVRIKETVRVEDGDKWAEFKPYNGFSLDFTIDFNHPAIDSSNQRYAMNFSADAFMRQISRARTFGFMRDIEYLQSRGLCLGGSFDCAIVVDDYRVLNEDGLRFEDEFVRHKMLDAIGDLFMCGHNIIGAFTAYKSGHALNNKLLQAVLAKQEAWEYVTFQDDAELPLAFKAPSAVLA

As a reminder, the inhibition is how much of the control response was suppressed. Broadly, the Ki is the dissociation constant of the complex between target and ligand, obtained from inhibition or displacement. Lower therefore signals higher affinity. One may read the MIC as the lowest concentration found to suppress growth. `O=C(NC[C@H](OCc1ccc(C#Cc2ccc(CN3CCOCC3)cc2)cc1)C(=O)NO)c1cnc2ccccc2c1` [(S)-13f]: in the assay with P. aeruginosa ATCC 27853, the “Inhibition zone P. aeruginosa ATCC 27853” value is less than 6 mm. Besides, the “Inhibition zone E. coli ATCC 35218” value in the assay with E. coli ATCC 35218 came to 15.0 ± 0 mm. Moreover, the “Inhibition zone E. coli TOP 10” value in the assay on E. coli TOP10 is 18.0 ± 6.0 mm. Moreover, in the assay on E. coli BL21(DE3) [1], the “Inhibition zone E. coli BL21(DE3)” value was determined as 11.5 ± 2.1 mm. In addition, the “Inhibition zone E. coli D22” value in the assay on E. coli D22 [2] is 29.0 ± 1.0 mm. Besides, the “LasB Inhibition at 20 μM” value at LasB was “little to no inhibitory activity”. At LasB, the inhibition at 20 µM was less than 10%. The compound further registered a Ki at E. coli LpxC C63A of 117 ± 21 nM. The minimal inhibitory concentration (MIC) is greater than 16 µg/mL against E. coli BL21(DE3) [3] and 0.25 µg/mL (≈ 0.443 µM) in the assay on E. coli D22 [4].
`O=C(NC[C@H](OCc1ccc(C#Cc2ccc(CN3CCOCC3)cc2)cc1)C(=O)NO)c1cc2ccccc2[nH]1` [(S)-13g]: in the assay with P. aeruginosa ATCC 27853, the “Inhibition zone P. aeruginosa ATCC 27853” value is less than 6 mm. For the same compound, in the assay on E. coli ATCC 35218, the “Inhibition zone E. coli ATCC 35218” value came to 10.7 ± 0.6 mm. In addition, the “Inhibition zone E. coli TOP 10” value with E. coli TOP10 stood at 16.0 ± 6.1 mm. Further, in the assay with E. coli BL21(DE3) [1], the “Inhibition zone E. coli BL21(DE3)” value is listed as 10.0 ± 1.0 mm. Moreover, the “Inhibition zone E. coli D22” value in the assay on E. coli D22 [2] is given as 23.0 ± 1.0 mm. Further, on LasB, the “LasB Inhibition at 20 μM” value is recorded as “little to no inhibitory activity” and the inhibition at 20 µM was less than 10%. The compound further had an inhibition constant Ki at E. coli LpxC C63A of 87 ± 58.5 nM. Besides, in the assay with E. coli BL21(DE3) [3], the “MIC E. coli BL21(DE3)” value was 8.0 µg/mL (≈ 14.5 µM) and the minimum inhibitory concentration (MIC) lay in the range of 4 to 8 µg/mL (≈ 7.24 to 14.5 µM). In the assay on E. coli D22 [4], this compound gave an MIC of 0.063 µg/mL (≈ 0.114 µM).
On to `O=C(NC[C@H](OCc1ccc(C#Cc2ccc(CN3CCOCC3)cc2)cc1)C(=O)NO)c1cccc2[nH]ccc12` [(S)-13i], for which the “Inhibition zone P. aeruginosa ATCC 27853” value in the assay with P. aeruginosa ATCC 27853 is 6.3 ± 0.6 mm. Besides, in the assay on E. coli ATCC 35218, the “Inhibition zone E. coli ATCC 35218” value is 17.0 ± 3.5 mm. Moreover, the “Inhibition zone E. coli TOP 10” value with E. coli TOP10 was found to be 23.0 ± 1.0 mm. For the same compound, the “Inhibition zone E. coli BL21(DE3)” value in the assay on E. coli BL21(DE3) [1] is 20.4 ± 1.6 mm. Besides, the “Inhibition zone E. coli D22” value in the assay with E. coli D22 [2] was greater than 30 mm. At LasB, the “LasB Inhibition at 20 μM” value was “little to no inhibitory activity” and the inhibition at 20 µM is 27.6 ± 2.9%. This compound yielded an inhibitory constant (Ki) at E. coli LpxC C63A of 15.3 ± 3.6 nM. The compound further returned a minimum inhibitory concentration (MIC) with E. coli D22 [4] of 0.031 µg/mL (≈ 0.0561 µM).
On to `O=C(NC[C@H](OCc1ccc(C#Cc2ccc(CN3CCOCC3)cc2)cc1)C(=O)NO)c1ccc[nH]1` [(S)-13k], for which the “Inhibition zone P. aeruginosa ATCC 27853” value in the assay on P. aeruginosa ATCC 27853 worked out at 9.0 ± 1.4 mm. Besides, the “Inhibition zone E. coli ATCC 35218” value with E. coli ATCC 35218 is recorded as 23.0 ± 1.4 mm. Also, the “Inhibition zone E. coli TOP 10” value in the assay with E. coli TOP10 stood at 27.0 ± 2.8 mm. In addition, the “Inhibition zone E. coli BL21(DE3)” value in the assay with E. coli BL21(DE3) [1] is listed as 23.3 ± 0.6 mm. Besides, the “Inhibition zone E. coli D22” value with E. coli D22 [2] is greater than 30 mm. Besides, the inhibition at 20 µM on LasB is 22.4 ± 3.1%. On E. coli LpxC C63A, the Ki came out at 97.1 ± 9.4 nM. Also, in the assay with E. coli BL21(DE3) [3], the “MIC E. coli BL21(DE3)” value was 4.0 µg/mL (≈ 7.96 µM) and the minimal inhibitory concentration (MIC) fell in the range of 4 to 8 µg/mL (≈ 7.96 to 15.9 µM). Moreover, inhibition of growth in the assay with E. coli D22 [4] (MIC) required 0.063 µg/mL (≈ 0.125 µM).
`O=C(NC[C@H](OCc1ccc(C#Cc2ccc(CN3CCOCC3)cc2)cc1)C(=O)NO)c1cc(-c2ccccc2)[nH]n1` [(S)-13m]: in the assay with P. aeruginosa ATCC 27853, the “Inhibition zone P. aeruginosa ATCC 27853” value is less than 6 mm. The “Inhibition zone E. coli ATCC 35218” value in the assay with E. coli ATCC 35218 came to 13.0 ± 1.7 mm. Further, the “Inhibition zone E. coli TOP 10” value in the assay with E. coli TOP10 was 14.7 ± 0.6 mm. Moreover, in the assay with E. coli BL21(DE3) [1], the “Inhibition zone E. coli BL21(DE3)” value is given as 11.3 ± 1.6 mm. The “Inhibition zone E. coli D22” value in the assay with E. coli D22 [2] is 24.5 ± 1.8 mm. Besides, at LasB, the “LasB Inhibition at 20 μM” value is listed as “little to no inhibitory activity” and the inhibition at 20 µM was less than 10%. Also, the affinity at E. coli LpxC C63A, expressed as Ki, was 85.2 ± 21.7 nM. In the assay with E. coli BL21(DE3) [3], the “MIC E. coli BL21(DE3)” value stood at 8.0 µg/mL (≈ 13.8 µM) and the MIC lay within 4 to 8 µg/mL (≈ 6.9 to 13.8 µM). The same compound had a minimum inhibitory concentration (MIC) in the assay with E. coli D22 [4] of 0.063 µg/mL (≈ 0.109 µM).
As for `O=C(NO)[C@H](CN(Cc1ccccc1)Cc1ccccc1)OCc1ccc(C#Cc2ccc(CN3CCOCC3)cc2)cc1` [(S)-37, (S)-3-(Dibenzylamino)-N-hydroxy-2-[(4-{[4-(morpholinomethyl)phenyl]ethynyl}benzyl)oxy]propanamide], the “Inhibition zone E. coli BL21(DE3)” value with E. coli BL21(DE3) [1] is given as no more than 6 mm. Besides, in the assay on E. coli D22 [2], the “Inhibition zone E. coli D22” value was determined as 7.7 ± 1.2 mm. For the same compound, the “LasB Inhibition at 20 μM” value at LasB is reported as “no inhibitory activity”. The inhibition at 20 µM on LasB is less than 10%. For the same compound, the inhibitory constant (Ki) at E. coli LpxC C63A was greater than 2540 nM. Moreover, the MIC was greater than 16 µg/mL in the assay with E. coli BL21(DE3) [3] and 16 µg/mL (≈ 27.1 µM) against E. coli D22 [4].
